Results: ChEMBL document CHEMBL3044940, “Activities of essential oils from Asarum heterotropoides var. mandshuricum against five phytopathogens” (Crop Prot, 2010)
Converted amounts (≈) assume the structure as drawn. The source made the active and inactive calls. The calls are words filed in the database; no cut-off is given here.

Legend:
Assay type in all cases: functional, organism-based
Phytophthora cactorum [1] = test: Growth inhibition of Phytophthora cactorum after 48 hr
Fusarium solani = test: Growth inhibition of Fusarium solani after 48 hr
Alternaria humicola = test: Growth inhibition of Alternaria humicola after 48 hr
[2] = tested on: Colletotrichum gloeosporioides; test: Growth inhibition of Colletotrichum gloeosporioides after 48 hr
Rhizoctonia solani = test: Growth inhibition of Rhizoctonia solani after 48 hr
Phytophthora cactorum [3] = test: Induction of changes in hyphae ultrastructures in Phytophthora cactorum assessed as endoplasmic reticulum structure changes at 0.052 ug/ml by transmission electron microscopy
Phytophthora cactorum [4] = test: Induction of changes in hyphae ultrastructures in Phytophthora cactorum assessed as mitochondria level changes at 0.052 ug/ml by transmission electron microscopy
Phytophthora cactorum [5] = test: Induction of changes in hyphae ultrastructures in Phytophthora cactorum assessed as membranes obscuring at 0.052 ug/ml by transmission electron microscopy
Phytophthora cactorum [6] = test: Induction of changes in hyphae ultrastructures in Phytophthora cactorum assessed as cell wall thickening at 0.052 ug/ml by transmission electron microscopy
Phytophthora cactorum [7] = test: Induction of changes in hyphae ultrastructures in Phytophthora cactorum assessed as plasmalemma invagination at 0.052 ug/ml by transmission electron microscopy; conditions: Plasma
Phytophthora cactorum [8] = test: Induction of changes in hyphae ultrastructures in Phytophthora cactorum at 0.052 ug/ml by transmission electron microscopy

## COCC(=O)N(c1c(C)cccc1C)C(C)C(=O)OC (configuration not stated) [METALAXYL]
Phytophthora cactorum [1]
  IC50: 0.013 µg/mL (≈ 0.0465 µM)

## C=CCc1ccc(OC)c(OC)c1 [METHYLEUGENOL]
Fusarium solani
  growth inhibition (GI): inactive
Alternaria humicola
  IC50: 0.144 µg/mL (≈ 0.808 µM)
[2]
  IC50: 0.09 µg/mL (≈ 0.505 µM)
Rhizoctonia solani
  IC50: 0.279 µg/mL (≈ 1.57 µM)
Phytophthora cactorum [1]
  IC50: 0.052 µg/mL (≈ 0.292 µM)
Phytophthora cactorum [3]
  Activity: Active
Phytophthora cactorum [4]
  Activity: Active
Phytophthora cactorum [5]
  Activity: Active
Phytophthora cactorum [6]
  Activity: Active
Phytophthora cactorum [7]
  Activity: Active
Phytophthora cactorum [8]
  Activity: Active
